Measured values from patent US20080039434A1, “Treatment of Interstitial Cystitis with Vitamin D Compounds” (BioXell S. p.A., priority 2004, published 2008).
Where “and” joins values, the source holds several entries; their conditions need not be identical. Equal values may be shown once.

Experiments:
[1] = system: rats with CYP-induced cystitis; assay: Cystometry in conscious rats with cyclophosphamide (CYP) induced chronic IC, Compound A; assay type: in vivo, rat; set-up: Bl. Cap. / FP / TP / MP / amplitude of NVBC: unit not given here; conditions: Compound A oral 0.1 μg/kg daily for 14 days
Description: The rat model of chemical cystitis induced by intraperitoneal injection of CYP has been Well accepted. CYP is used in clinical practice in the treatment of a number of malignant tumors. One of its metabolites, acrolein, is excreted in urine in large concentrations causing hemorrhagic cystitis associated with symptoms of urinary frequency, urgency and pelvic pain. The inflammatory process is characterized by changes in gross histology of bladder, increase in number and distribution of inflammatory cell infiltrates (mast cells, macrophage, PMNs), cyclo-oxygenase-2 expression and prostaglandin production, growth factor and cytokine production. The rat model of chemical cystitis closely resembles interstitial cystitis, a chronic, painful urinary bladder syndrome and has been used for the testing of therapeutic agents in the past.
This model was used to test the effects of oral administration of 1,25-dihydroxyvitamin D3 analogue in rats with CYP-induced cystitis. The effects of the treatment on the cystometric parameters in a conscious freely moving rat with CYP-induced cystitis were monitored. The following cystometric parameters were recorded in each animal: • bladder capacity • filling pressure (pressure at the beginning of the bladder filling) • threshold pressure (bladder pressure immediately prior to micturition) • micturition pressure (the maximal bladder pressure during micturition) • presence or absence of non-voiding bladder contractions (increases in bladder pressure of at least 10 cm H2O without release of urine) • amplitude of non-voiding bladder contraction.
Animals: Wistar female rats, age 8 weeks, weighing 125-175 g were used. […] Following recovery all animals received three intraperitoneal injections of CYP and subsequently were divided into the treatment and sham control groups.
Treatment group: Rats treated with oral 1,25-dihydroxyvitamin D3 analog (1,3-Di-O-acetyl-1,25-dihydroxy-16,23Z-diene-26,27-hexafluoro-19-nor-cholecalciferol) “Compound A” for 14 days (daily dose of 0.1 μg/kg)
Cystometry was performed 24 hours following the last dose of the drug or vehicle on awake freely moving animals.
A lower midline abdominal incision was performed under general inhalation anesthesia (isoflurine with O2) and polyethylene tubing (PE-50, Clay Adams, Parsippany, N.J.) with the end flared by heat was inserted into the dome of the bladder and secured in place with a 6-0 prolene purse string suture. The distal end of the tubing was heat-sealed, tunneled subcutaneously and externalized at the back of the neck, out of the animal's reach. Abdominal and neck incisions were closed with 4-0 nylon sutures.
Following recovery (5 days) subject animals underwent three intraperitoneal injections of CYP (Sigma Chemical, St. Luis, Mo.; 75 mg/kg each, intraperitoneal) over the period of nine days. On the tenth day following the first CYP injection the sham control animals received the vehicle only, whereas the experimental group were treated with the 1,25-dihydroxyvitamin D3 analogue 1,3-Di-O-acetyl-1,25-dihydroxy-16,23Z-diene-26,27-hexafluoro-19-nor-cholecalciferol “Compound A” (delivered orally using gavage). Two weeks following the initiation of the treatment animals underwent a conscious cystometrogram to assess the function of the urinary bladder.
An animal was placed unrestrained in a cage and the catheter was connected via a T-tube to a pressure transducer (Grass® Model PT300, West Warwick, R.I.) and microinjection pump (Harvard Apparatus 22, South Natick, Mass.). A 0.9% saline solution was infused at room temperature into the bladder at a rate of 10 ml/hour. […]. At least three reproducible micturition cycles were recorded after the initial stabilization period of 25-30 minutes.

[2] = Body weight in allergic IC mice; assay type: in vivo, mouse; conditions: 75 ug/kg oral vs control animals; daily timepoints
Experimental: An ethanol stock solution of Compound B (1 mg/ml) was dissolved in Miglyol vehicle at the appropriate concentration. Control animals received the vehicle containing the same amount of ethanol. Drug (or vehicle) treatment was carried out by daily gavage after weighing the animal. Drug solution was prepared calculating a final volume of 100 ul/10 grams body weight, and treatment was started on the day of the first intravesical ovalbumin challenge, maintained daily, but discontinued over the weekends, for 12 days total treatment. FIG. 7 illustrates the timeline of the experiment.

SMILES	Bl. Cap. ([1]; CYP cystitis, individual rats RB7, RB13, RB15, three micturition cycles each)	amplitude of NVBC ([1]; individual rats, three micturition cycles each)	FP ([1]; filling pressure, individual rats, three micturition cycles each)	MP ([1]; micturition pressure, individual rats, three micturition cycles each)	# of NVBC ([1]; non-voiding bladder contractions, individual rats, three micturition cycles each)	TP ([1]; threshold pressure, individual rats, three micturition cycles each)	body weight [2]
CC(=O)OC1C/C(=C/C=C2\CCC[C@]3(C)C(C(C)C/C=C\C(O)(C(F)(F)F)C(F)(F)F)=CCC23)C[C@@H](OC(C)=O)C1 (stereo partly shown) [Compound A, 1,3-Di-O-acetyl-1,25-dihydroxy-16,23Z-diene-26,27-hexafluoro-19-nor-cholecalciferol]	1.9 and 1.3 (2×) and 2.5 and 1.5 and 0.7 (2×) and 0.8 and 1.4	10 and 11 (2×) and 0 (6×)	15 and 14 (3×) and 12 and 11 and 10 and 13 (2×)	105 and 97 (2×) and 90 and 100 and 108 and 98 and 101 and 104	4 and 8 (2×) and 0 (6×)	16 and 17 and 14 (4×) and 12 and 11 and 15	–
C=C1/C(=C\C=C2/CCC[C@]3(C)C([C@@H](C)C/C=C/C(O)(CC)CC)=CC[C@@H]23)C[C@@H](O)C[C@@H]1F [Compound B, 1-alpha-fluoro-25-hydroxy-16,23E-diene-26,27-bishomo-20-epi-cholecalciferol]	–	–	–	–	–	–	no significant difference
